Patent publication US5488060A, “Substituted thiadiazoles, compositions containing them and their use as antimicrobial and marine antifouling agents” (The Dow Chemical Company, priority 1994, dated 1996)
Converted amounts (≈) assume the structure as drawn. Where two headings read alike, the source gives them in different places.

Legend:
Type in all cases: cell-based
[1] = tested on: Aspergillus niger (An); experiment: Minimum inhibitory concentration (MIC) in malt yeast agar, Aspergillus niger
Method in brief: (§1)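 Compound (1% acetone/water solution) incorporated into pH 5.5 malt yeast agar at 0–500 ppm; plates inoculated by replicator with 1:9-diluted saline suspensions of 7-day fungal cultures. Incubated at 30° C and read at 72 hours; MIC is the lowest concentration inhibiting growth.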

[2] = tested on: Staphylococcus aureus (Sa); experiment: Minimum inhibitory concentration (MIC) in nutrient agar, Staphylococcus aureus
Method in brief: (§2)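 MIC is determined by agar incorporation into neutral and alkaline nutrient agar, with compound at final 500 to 1.0 ppm added from a 1% acetone–water solution. Plates are inoculated with 10^8 CFU/mL cultures and read after 48 h at 30° C.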

[3] = tested on: Klebsiella pneumoniae (Kp); experiment: Minimum inhibitory concentration (MIC) in nutrient agar, Klebsiella pneumoniae
Method in brief: as §2

[4] = tested on: Trichoderma viride (Tv); experiment: Minimum inhibitory concentration (MIC) in malt yeast agar, Trichoderma viride; conditions: 72 h, pH 5.5, read-out: Minimum Inhibitory Concentration, Tv
Method in brief: as §1

[5] = tested on: Pseudomonas aeruginosa (PRD-10); experiment: Minimum inhibitory concentration (MIC) in nutrient agar, Pseudomonas aeruginosa PRD-10
Method in brief: as §2

[6] = tested on: Escherichia coli (Ec); experiment: Minimum inhibitory concentration (MIC) in nutrient agar, Escherichia coli
Method in brief: as §2

[7] = tested on: Bacillus subtilis (Bs); experiment: Minimum inhibitory concentration (MIC) in nutrient agar, Bacillus subtilis
Method in brief: as §2

[8] = tested on: Aureobasidium pullulan (Ap); experiment: Minimum inhibitory concentration (MIC) in malt yeast agar, Aureobasidium pullulan; conditions: pH 5.5; malt yeast agar, 30° C.; read-out: Minimum Inhibitory Concentration, Ap
Method in brief: as §1

[9] = tested on: Penicillium chrysogenum (Pc); experiment: Minimum inhibitory concentration (MIC) in malt yeast agar, Penicillium chrysogenum; conditions: pH 5.5; malt yeast agar, 30° C., 72 hours for fungi; read-out: Minimum Inhibitory Concentration, PC
Method in brief: as §1

[10] = tested on: Fusarium oxysporum (Fo); experiment: Minimum inhibitory concentration (MIC) in malt yeast agar, Fusarium oxysporum; conditions: 72 h, pH 5.5, read-out: Minimum Inhibitory Concentration, Fo
Method in brief: as §1

[11] = tested on: Enterobacter aerogenes (Ea); experiment: Minimum inhibitory concentration (MIC) in nutrient agar, Enterobacter aerogenes; conditions: Klebsiella aerogenes, 48 h
Method in brief: as §2

[12] = tested on: Saccharomyces cerevisiae (Sc); experiment: Minimum inhibitory concentration (MIC) in malt yeast agar, Saccharomyces cerevisiae; conditions: pH 5.5, malt yeast agar, 30° C., 48 hours for yeast, read-out: Minimum Inhibitory Concentration, SC
Method in brief: (§3)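 Growth is scored at 30 °C after 72 h for fungi and 48 h for yeast on malt yeast agar (pH 5.5) containing compound at final levels from 500 down to zero ppm. Organisms are grown 7 days at 30 °C, suspended in saline with octylphenoxy polyethoxy ethanol, and diluted 1:9 before replicator inoculation.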

[13] = tested on: Pseudomonas aeruginosa (Pa); experiment: Minimum inhibitory concentration (MIC) in nutrient agar, Pseudomonas aeruginosa; conditions: 30° C., 48 hours, read-out: Minimum Inhibitory Concentration, Pa
Method in brief: as §2

[14] = tested on: Salmonella choleraesuis (Se); experiment: Minimum inhibitory concentration (MIC) in nutrient agar, Salmonella choleraesuis; conditions: Salmonella enterica
Method in brief: as §2

[15] = tested on: Proteus vulgaris (Pv); experiment: Minimum inhibitory concentration (MIC) in nutrient agar, Proteus vulgaris; conditions: 48 h
Method in brief: as §2

[16] = tested on: Candida albicans (Ca); experiment: Minimum inhibitory concentration (MIC) in malt yeast agar, Candida albicans; conditions: 48 h, pH 5.5, read-out: Minimum Inhibitory Concentration, Ca
Method in brief: as §3

[17] = pH 6.8, nutrient agar, 30° C., 48 hours, read-out: Minimum Inhibitory Concentration, Sa
[18] = pH 8.2, nutrient agar, 30° C., 48 hours, read-out: Minimum Inhibitory Concentration, Sa
[19] = 48 h, pH 8.2, read-out: Minimum Inhibitory Concentration, Kp
[20] = pH 6.8, nutrient agar, 30° C., 48 hours, read-out: Minimum Inhibitory Concentration, Kp
[21] = 48 h, pH 8.2, read-out: Minimum Inhibitory Concentration, PRD
[22] = 48 h, pH 6.8, read-out: Minimum Inhibitory Concentration, Ec
[23] = 48 h, pH 8.2, read-out: Minimum Inhibitory Concentration, Bs
[24] = pH 6.8, nutrient agar, 30° C., 48 hours, read-out: Minimum Inhibitory Concentration, Bs
[25] = pH 6.8, read-out: Minimum Inhibitory Concentration, Ea
[26] = pH 8.2, read-out: Minimum Inhibitory Concentration, Ea
[27] = 48 h, pH 6.8, read-out: Minimum Inhibitory Concentration, SC
[28] = pH 6.8, read-out: Minimum Inhibitory Concentration, Pv
[29] = pH 8.2, read-out: Minimum Inhibitory Concentration, Pv
[30] = 72 h, pH 5.5, read-out: Minimum Inhibitory Concentration, An
[31] = 48 h, pH 6.8, read-out: Minimum Inhibitory Concentration, PRD
[32] = pH 8.2, nutrient agar, 30° C., 48 hours, read-out: Minimum Inhibitory Concentration, Ec
[33] = 48 h, pH 8.2, read-out: Minimum Inhibitory Concentration, SC

Compound	MIC [2, 17] [µg/mL]	MIC [2, 18] [µg/mL]	MIC [3, 19] [µg/mL]	MIC [3, 20] [µg/mL]	MIC [4] [µg/mL]	MIC [5, 21] [µg/mL]	MIC [6, 22] [µg/mL]	MIC [7, 23] [µg/mL]	MIC [8] [µg/mL]	MIC [9] [µg/mL]	MIC [10] [µg/mL]	MIC [11, 25] [µg/mL]	MIC [11, 26] [µg/mL]	MIC [12] [µg/mL]	MIC ([13]; pH 6.8, nutrient agar) [µg/mL]	MIC ([13]; pH 8.2, nutrient agar) [µg/mL]	MIC [14, 27] [µg/mL]	MIC [15, 28] [µg/mL]	MIC [15, 29] [µg/mL]	MIC [16] [µg/mL]	other results
Cc1ccc(-c2nsnc2SCSC#N)cc1 [Example XXVII, 4-(4-Methylphenyl)-3-thiocyanatomethylthio-1,2,5-thiadiazole]	250 (≈ 895 µM)	25 (≈ 89.5 µM)	500 (≈ 1790 µM)	500 (≈ 1790 µM)	100 (≈ 358 µM)	500 (≈ 1790 µM)	500 (≈ 1790 µM)	25 (≈ 89.5 µM)	9 (≈ 32.2 µM)	9 (≈ 32.2 µM)	25 (≈ 89.5 µM)	500 (≈ 1790 µM)	500 (≈ 1790 µM)	9 (≈ 32.2 µM)	500 (≈ 1790 µM)	500 (≈ 1790 µM)	500 (≈ 1790 µM)	500 (≈ 1790 µM)	500 (≈ 1790 µM)	50 (≈ 179 µM)	MIC ([1]; pH 5.5, malt yeast agar, 30° C., 72 hours for fungi, read-out: Minimum Inhibitory Concentration, An): 9 µg/mL (≈ 32.2 µM); MIC ([5]; pH 6.8, nutrient agar, 30° C., 48 hours, read-out: Minimum Inhibitory Concentration, PRD): 250 µg/mL (≈ 895 µM); MIC ([6]; 48 h, pH 8.2, read-out: Minimum Inhibitory Concentration, Ec): 500 µg/mL (≈ 1790 µM); MIC [7, 24]: 25 µg/mL (≈ 89.5 µM); MIC ([14]; pH 8.2, nutrient agar, 30° C., 48 hours, read-out: Minimum Inhibitory Concentration, SC): 250 µg/mL (≈ 895 µM)
N#CSCSc1nsnc1-c1cccs1 [Example XXX, 4-(2-Thiophene)-3-thiocyanatomethylthio-1,2,5-thiadiazole]	500 (≈ 1840 µM)		> 500	500 (≈ 1840 µM)	250 (≈ 921 µM)	> 500	500 (≈ 1840 µM)	500 (≈ 1840 µM)	25 (≈ 92.1 µM)	9 (≈ 33.2 µM)	100 (≈ 368 µM)	500 (≈ 1840 µM)	> 500	9 (≈ 33.2 µM)	500 (≈ 1840 µM)	> 500	500 (≈ 1840 µM)	500 (≈ 1840 µM)	> 500	100 (≈ 368 µM)	MIC [1, 30]: 50 µg/mL (≈ 184 µM); MIC ([2]; 48 h, pH 8.2, read-out: Minimum Inhibitory Concentration, Sa): > 500 µg/mL; MIC [5, 31]: 500 µg/mL (≈ 1840 µM); MIC [6, 32]: 250 µg/mL (≈ 921 µM); MIC ([7]; 48 h, pH 6.8, read-out: Minimum Inhibitory Concentration, Bs): 500 µg/mL (≈ 1840 µM); MIC [14, 33]: > 500 µg/mL
N#CSCSc1nsnc1-c1cccnc1 [Example XXXI, 4-(3-Pyridyl)-3-thiocyanatomethylthio-1,2,5-thiadiazole]	100 (≈ 375 µM)	50 (≈ 188 µM)	> 500	500 (≈ 1880 µM)	50 (≈ 188 µM)	> 500	500 (≈ 1880 µM)	25 (≈ 93.9 µM)	9 (≈ 33.8 µM)	9 (≈ 33.8 µM)	25 (≈ 93.9 µM)	500 (≈ 1880 µM)	> 500	9 (≈ 33.8 µM)	500 (≈ 1880 µM)	> 500	500 (≈ 1880 µM)	500 (≈ 1880 µM)	> 500	25 (≈ 93.9 µM)	MIC [1, 30]: 25 µg/mL (≈ 93.9 µM); MIC [5, 31]: 500 µg/mL (≈ 1880 µM); MIC [6, 32]: 250 µg/mL (≈ 939 µM); MIC [7, 24]: 50 µg/mL (≈ 188 µM); MIC [14, 33]: > 500 µg/mL
